From patent US20150313228A1, “SYNERGISTIC HERBICIDAL COMBINATIONS AND METHODS OF USE” (priority 2012, published 2015)

Columns and labels:
Type in all cases: in vivo
[1] = tested on: ryegrass; assay: Pre-emergence application in ryegrass under greenhouse conditions (Example 6); settings: 16 days after application
From the text: (§1) The following testing protocol was employed to evaluate the pre-emergence application of herbicides and herbicide combinations as described in the following examples unless otherwise specified. The weed species to be treated were planted in 3.5 inch pots containing a 50:50 silt loam:redi-earth soil mix. Immediately after such planting (i.e., pre-emergence), herbicide was applied to the soil mix at the specified application rate using a track sprayer with a flat even nozzle type, 9501E nozzle size, and spray pressure of 165 kPa. All herbicides were incorporated into the germination zone with 0.25 inch of overhead irrigation three days after spraying. Additional sub-irrigation was provided to achieve adequate soil moisture for germination. After the incorporation of the herbicide(s), the pots were only overhead irrigated as needed. Throughout the test period, temperature was maintained from about 20° C. to about 30° C. and relative humidity was maintained at about 30%. The plants were rated visually and percentage of weed control was determined for each treatment at 19 days after herbicide application.
(§2) Pre-emergence application of several herbicides and herbicide combinations was evaluated in ryegrass under greenhouse conditions. The plants were rated visually and percentage of weed control was determined at 16 days after herbicide application. The herbicides and herbicide combinations evaluated are listed in Table 6-A below together with the corresponding percent control data. The data represent an average value (n=6).
The results of the analysis are reported below in Table 6-B (dicamba+metribuzin), Table 6-C(acetochlor+metribuzin), and Table 6-D (acetochlor+dicamba).

[2] = tested on: sicklepod; assay: Pre-emergence application in sicklepod under greenhouse conditions (Example 4); settings: 18 days after application
From the text: as §1
as §2, with “sicklepod” for “ryegrass”, “18” for “16”, “4-A” for “6-A”
The results of the analysis are reported below in Table 4-B (dicamba+metribuzin), Table 4-C(acetochlor+metribuzin), and Table 4-D (acetochlor+dicamba).

[3] = tested on: wild Proso millet; assay: Pre-emergence application in wild Proso millet under greenhouse conditions (Example 3); settings: 16 days after application
From the text: as §1
as §2, with “wild Proso millet” for “ryegrass”, “3-A” for “6-A”
The results of the analysis are reported below in Table 3-B (dicamba+metribuzin), Table 3-C (acetochlor+metribuzin), and Table 3-D (acetochlor+dicamba).

[4] = tested on: Johnsongrass; assay: Pre-emergence application in Johnsongrass under greenhouse conditions (Example 5); settings: 16 days after application
From the text: as §1
as §2, with “Johnsongrass” for “ryegrass”, “5-A” for “6-A”
The results of the analysis are reported below in Table 5-B (dicamba+metribuzin), Table 5-C(acetochlor+metribuzin), and Table 5-D (acetochlor+dicamba).

[5] = tested on: morning glory; assay: Pre-emergence application in morning glory under greenhouse conditions (Example 2); settings: 18 days after application
From the text: as §1
as §2, with “morning glory” for “ryegrass”, “18” for “16”, “2-A” for “6-A”
The results of the analysis are reported below in Table 2-B (dicamba+metribuzin), Table 2-C(acetochlor+metribuzin), and Table 2-D (acetochlor+dicamba).

[6] = tested on: Palmer amaranth; assay: Pre-emergence application in Palmer amaranth under greenhouse conditions (Example 1); settings: 18 days after application
From the text: as §1
as §2, with “Palmer amaranth” for “ryegrass”, “18” for “16”, “1-A” for “6-A”
The results of the analysis are reported below in Table 1-B (dicamba+metribuzin), Table 1-C(acetochlor+metribuzin), and Table 1-D (acetochlor+dicamba).

[7] = tested on: Palmer amaranth; assay: Post-emergence application in Palmer amaranth under greenhouse conditions (Example 7); settings: 24 days after application
From the text: The following testing protocol was employed to evaluate the post-emergence application of herbicides and herbicide combinations as described in the following examples unless otherwise specified. The weed species to be treated were planted in 3.5 inch pots containing redi-earth potting mix and grown under greenhouse conditions. When the weed species reached a height of about four inches, herbicide was applied at the specified application rate using a track sprayer with a flat even nozzle type, 9501E nozzle size, and spray pressure of 165 kPa. After the application of the herbicide(s), the pots were only sub-irrigated as needed. Throughout the test period, temperature was maintained from about 20° C. to about 30° C. and relative humidity was maintained at about 30%. The plants were rated visually and percentage of weed control was determined for each treatment at 15 to 21 days after herbicide application.
as §2, with “Post-emergence” for “Pre-emergence”, “Palmer amaranth” for “ryegrass”, “24” for “16”, “7-A” for “6-A”
The results of the analysis are reported below in Table 7-B (glyphosate+dicamba), Table 7-C(glyphosate+metribuzin), and Table 7-D (dicamba+metribuzin).

CCOCN(C(=O)CCl)c1c(C)cccc1CC [Acetochlor, 2-chloro-N-(ethoxymethyl)-6′-ethyl-o-acetotoluidide]
PERCENT CONTROL ([1]; 840 g/ha): 82.5%
PERCENT CONTROL ([1]; 1260 g/ha): 86.7%
PERCENT CONTROL ([2]; 840 g/ha): 4.0%
PERCENT CONTROL ([2]; 1260 g/ha): 5.8%
PERCENT CONTROL ([3]; 840 g/ha): 74.2%
PERCENT CONTROL ([3]; 1260 g/ha): 84.0%
PERCENT CONTROL ([4]; 840 g/ha): 94.8%
PERCENT CONTROL ([4]; 1260 g/ha): 100.0%
PERCENT CONTROL ([5]; 840 g/ha): 5.0%
PERCENT CONTROL ([5]; 1260 g/ha): 7.5%
PERCENT CONTROL ([6]; 840 g/ha): 65.8%
PERCENT CONTROL ([6]; 1260 g/ha): 90.8%

COc1c(Cl)ccc(Cl)c1C(=O)O [Dicamba, 3,6-dichloro-2-methoxy benzoic acid]
PERCENT CONTROL ([7]; 280 g/ha): 100.0%
PERCENT CONTROL ([7]; 560 g/ha): 100.0%
PERCENT CONTROL ([1]; 280 g/ha): 31.7%
PERCENT CONTROL ([1]; 560 g/ha): 56.7%
PERCENT CONTROL ([2]; 280 g/ha): 42.0%
PERCENT CONTROL ([2]; 560 g/ha): 84.0%
PERCENT CONTROL ([3]; 280 g/ha): 43.3%
PERCENT CONTROL ([3]; 560 g/ha): 74.2%
PERCENT CONTROL ([4]; 280 g/ha): 71.7%
PERCENT CONTROL ([4]; 560 g/ha): 83.3%
PERCENT CONTROL ([5]; 280 g/ha): 38.0%
PERCENT CONTROL ([5]; 560 g/ha): 81.7%
PERCENT CONTROL ([6]; 280 g/ha): 88.3%
PERCENT CONTROL ([6]; 560 g/ha): 84.2%

CSc1nnc(C(C)(C)C)c(=O)n1N [Metribuzin, 4-amino-6-(1,1-dimethylethyl)-3-(methylthio)-1,2,4-triazin-5(4H)-one]
PERCENT CONTROL ([7]; 420 g/ha): 20.0%
PERCENT CONTROL ([7]; 840 g/ha): 26.0%
PERCENT CONTROL ([1]; 420 g/ha): 33.3%
PERCENT CONTROL ([1]; 840 g/ha): 66.7%
PERCENT CONTROL ([2]; 420 g/ha): 56.7%
PERCENT CONTROL ([2]; 840 g/ha): 100.0%
PERCENT CONTROL ([3]; 420 g/ha): 100.0%
PERCENT CONTROL ([3]; 840 g/ha): 100.0%
PERCENT CONTROL ([4]; 420 g/ha): 84.2%
PERCENT CONTROL ([4]; 840 g/ha): 100.0%
PERCENT CONTROL ([5]; 420 g/ha): 16.7%
PERCENT CONTROL ([5]; 840 g/ha): 63.8%
PERCENT CONTROL ([6]; 420 g/ha): 100.0%
PERCENT CONTROL ([6]; 840 g/ha): 100.0%
